For the test, the system named is ketamine schizophrenia model rats (大鼠分裂症氯胺酮模型大鼠). In words: Social interaction test in ketamine-induced schizophrenia model rats (total activity time, aggressive and non-aggressive behaviour). It counts as in vivo, rat. As to conditions: n=20, mean±SD.
Where [1] appears, read: day of drug withdrawal, after 7 days i.m. dosing (compounds A-E 1 mg/kg; risperidone 2 mg/kg), ketamine model Wistar rats, 7 min test, * P<0.05, ** P<0.01 vs model.

Take `Cc1nc2n(c(=O)c1CCN1CCC(c3noc4cc(F)ccc34)CC1)CCCC2` [利培酮]: the total activity time by setting is: (7 days after drug withdrawal, after 7 days i.m. dosing (compounds A-E 1 mg/kg; risperidone 2 mg/kg), ketamine model Wistar rats, 7 min test, * P<0.05, ** P<0.01 vs model) 18.2±6.3; (before dosing (baseline), male Wistar rats, ketamine 30 mg/kg i.p. 5 days) 13.9±2.9; under setting [1], 23.2±6.1. Further, the “number of aggressive behaviours” value under setting [1] was 3.1±1.5. In addition, the “number of non-aggressive behaviours” value under setting [1] amounted to 6.3±3.9.

The values are drawn from CN103800339A, “一类治疗精神分裂症的化合物及其用途” (Individual, priority 2012, dated 2014).
